Columns and labels:
RBL-2H3 = assay: Influence of VGS mutations on surface expression of human HTR1B in RBL-2H3 cells, flow cytometry after magnetic bead separation (Example 4); type: cell-based; settings: for Percentage of positive cells after selection (range) / Median fluorescence intensity of positive cells, x-median (range): human HTR1B, MoMLV5′LTR promoter, RBL-2H3, triplicate; for Percentage of positive cells after selection (range): magnetic bead separated
Excerpt: Vectors were developed for stable expression of human HTR1B without the methionine at position 1 in mammalian cells under the control of Moloney Leukaemia virus 5′-LTR promoter (MoMLV5′LTR, SEQ ID NO: 6). All vectors had the neomycin resistance gene for selection of stable eukaryotic cells and mouse immunoglobulin kappa signal peptide followed by a c-myc tag (EQKLISEEDLN peptide). Vectors included no VGS, native VGS or two VGS mutants (VGS mutant 1 and VGS mutant 2). This experiment was designed to test if serine and threonine at VGS which represent potential […] glycosylation sites are the molecular determinants of improved surface expression. In VGS mutant 1 all 5 serine and threonine were mutated to alanine while in VGS mutant 2 all serine were mutated and 2 threonines were still present.
Each vector was individually electroporated by triplicate using a microporator (Digital Bio Technology, South Korea) into RBL-2H3 and after 48 hours neomycin at 500 ug/mL was added to culture for selection. After selection for about 2 weeks cells were analysed by flow cytometry (Guava Technologies, USA) with anti-cmyc tag antibody (anti-cmyc-FITC, clone 9E10, Sigma-Aldrich, USA) for surface expression. Selected cells were separated by using magnetic beads from Miltenyi and anti-cmyc tag. Results were expressed as percentage of positive cells after subtraction of values from non transfected RBL-2H3 cells incubated with the same anti-cmyc tag antibody. For positive cells median fluorescence intensity (x-median) was taken as a marker of surface receptor density on the surface of positive cells.

WEHI-3B = assay: Surface expression of HT1BR in stably transfected WEHI-3B cells, flow cytometry with anti-cmyc tag antibody (Example 2); type: cell-based, mouse
Excerpt: (§1) Vectors were developed for stable expression of GPCRs in hematopoietic cells without professional regulated exocytosis under the control of Moloney Leukaemia virus 5′-LTR (MoMLV5′LTR, SEQ ID NO: 6), a good promoter for expression of GPCRs tested previously for more than 20 different GPCRs. The vector had neomycin resistance gene for selection of stable eukaryotic cells, mouse immunoglobulin kappa signal peptide followed by a c-myc tag (EQKLISEEDLN peptide) and the entire HT1BR GPCR without the methionine at position 1. This GPCR is a prototype of a receptor that it is difficult to be expressed into RBL-2H3. Two vectors were developed: one with a heterologous viral-GPCR derived sequence (VGS) and one without VGS. Each vector was individually electroporated using a microporator (Digital Bio Technology, South Korea) into WEHI-3B, a mouse myelomonocytic leukaemia cell line (DSMZ, ACC26) and into BW5147.G.1.4.ovar.1, a mouse lymphoma T cell line (HPA cultures, Cat. No. 88100507) and after 48 hours neomycin was added to culture for selection. After selection for about 2 weeks cells were analysed by flow cytometry (Guava Technologies, USA) with anti-cmyc tag antibody (anti-cmyc-FITC, clone 9E10, Sigma-Aldrich, USA) for surface expression.

BW5147.G.1.4.ovar.1 = assay: Surface expression of HT1BR in stably transfected BW5147 cells, flow cytometry with anti-cmyc tag antibody (Example 2); type: cell-based, mouse; settings: MoMLV5′LTR promoter
Excerpt: as §1

HEK293 cells = assay: Surface expression of human HTR1B in stably transfected HEK293 cells, flow cytometry with anti-cmyc tag antibody (Example 3); type: cell-based; settings: HEK293, MoMLV5′LTR promoter
Excerpt: Vectors were developed for stable expression of GPCRs in mammalian cells under the control of the following promoters: Moloney Leukaemia virus 5′-LTR (MoMLV5′LTR, SEQ ID NO: 6), human phosphoglycerate kinase promoter (SEQ ID NO: 4) and human elongation factor 1 alpha promoter (hEF1alpha, SEQ ID NO: 3). All vectors had the neomycin resistance gene for selection of stable eukaryotic cells, mouse immunoglobulin kappa signal peptide followed by a c-myc tag (EQKLISEEDLN peptide), a sequence derived from a heterologous viral-GPCR (VGS, SEQ ID NO: 2) and the entire human HTR1B without the methionine at position 1. Such heterologous viral-GPCR derived sequence was included to test if surface expression is improved by certain heterologous viral-GPCR derived sequences in non-hematopoietic cell lines. […] After selection for about 2 weeks cells were analysed by flow cytometry (Guava Technologies, USA) with anti-cmyc tag antibody (anti-cmyc-FITC, clone 9E10, Sigma-Aldrich, USA) for surface expression. Results were expressed as percentage of positive cells after subtraction of values from non transfected HEK293 cells incubated with the same anti-cmyc tag antibody. […] For positive cells mean fluorescence intensity (MFI) was taken as a marker of surface receptor density on the surface of positive cells.

## LAAMAPGATVGT [VGS mutant 2, all serine mutated, 2 threonines still present]
RBL-2H3; RBL-2H3, MoMLV5′LTR promoter
  Reduction of median fluorescence intensity versus native VGS: 1.43 fold
RBL-2H3
  Percentage of positive cells after selection (range): 49.2 (48.2-50.2) %

## LSTMAPGSTVGT [VGS native]
RBL-2H3; RBL-2H3, MoMLV5′LTR promoter
  Increase of median fluorescence intensity of positive cells versus no VGS: 2.6 fold
RBL-2H3
  Median fluorescence intensity of positive cells, x-median (range): 89.3 (87.7-90.9)
  Percentage of positive cells after selection (range): 50.2 (49.2-51.1) %
RBL-2H3; listed as native VGS
  Percentage of positive cells after selection (range): 50%
  Median fluorescence intensity of positive cells, x-median (range): 89.3

## VGS: Heterologous viral-GPCR derived sequence (VGS, SEQ ID NO: 2) added at the amino terminus of the GPCR (CTGAGCACAATGGCCCCAGGCTCCACCGTGGGAACA; expressed or natural sequence)
WEHI-3B; HT1BR, WEHI 3B cells, about 2 weeks neomycin selection
  Percentage of positive cells after selection: about 50%
WEHI-3B; WEHI-3B cells, MoMLV5′LTR promoter
  Ratio of percentage of positive cells with VGS versus without: 1.6 times
BW5147.G.1.4.ovar.1
  Ratio of percentage of cells with surface expression with VGS versus without: about 15 times
HEK293 cells
  Improvement of percentage of positive cells by inclusion of VGS: 2.7 fold

## LAAMAPGAAVGA [VGS mutant 1, all 5 serine and threonine mutated to alanine]
RBL-2H3
  Median fluorescence intensity of positive cells, x-median (range): 45.6 (44.9-46.2)
  Percentage of positive cells after selection (range): 49.1 (47.5-50.7) %

Source: patent publication US9499584B2, “GPCR with improved cell surface expression” (CANVAX BIOTECH S.L, priority 2012, dated 2016)
